Data as given in US12351580B2, “NLRP3 modulators” (Innate Tumor Immunity, Inc., priority 2017, dated 2025).

Biological target: T1, hNLRP3 (Homo sapiens, UniProt Q96P20)
T1 construct: THP-1 cells were purchased from the American Type Culture Collection; host or cells: THP-1 cells, PMA-differentiated
Assay: Measurement of IL-1β production in PMA-differentiated THP-1 cells (hNLRP3 agonist; ELISA, alternative and hTRF procedures)
Type: cell-based
Method in brief: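 PMA-differentiated THP-1 cells (PMA […] 24 h, 20 μg/ml overnight, or 50 ng/ml overnight, by procedure) replated in RPMI with 2% FBS and exposed to compound (e.g. 100–0.1 μM, 1% DMSO; hTRF format top 10 μM) for 4 h, 2 h, or 2 h respectively. Supernatant IL-1β measured by ELISA, or by hTRF with antibodies diluted 1:40.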

T1 sequence (Q96P20 whole entry): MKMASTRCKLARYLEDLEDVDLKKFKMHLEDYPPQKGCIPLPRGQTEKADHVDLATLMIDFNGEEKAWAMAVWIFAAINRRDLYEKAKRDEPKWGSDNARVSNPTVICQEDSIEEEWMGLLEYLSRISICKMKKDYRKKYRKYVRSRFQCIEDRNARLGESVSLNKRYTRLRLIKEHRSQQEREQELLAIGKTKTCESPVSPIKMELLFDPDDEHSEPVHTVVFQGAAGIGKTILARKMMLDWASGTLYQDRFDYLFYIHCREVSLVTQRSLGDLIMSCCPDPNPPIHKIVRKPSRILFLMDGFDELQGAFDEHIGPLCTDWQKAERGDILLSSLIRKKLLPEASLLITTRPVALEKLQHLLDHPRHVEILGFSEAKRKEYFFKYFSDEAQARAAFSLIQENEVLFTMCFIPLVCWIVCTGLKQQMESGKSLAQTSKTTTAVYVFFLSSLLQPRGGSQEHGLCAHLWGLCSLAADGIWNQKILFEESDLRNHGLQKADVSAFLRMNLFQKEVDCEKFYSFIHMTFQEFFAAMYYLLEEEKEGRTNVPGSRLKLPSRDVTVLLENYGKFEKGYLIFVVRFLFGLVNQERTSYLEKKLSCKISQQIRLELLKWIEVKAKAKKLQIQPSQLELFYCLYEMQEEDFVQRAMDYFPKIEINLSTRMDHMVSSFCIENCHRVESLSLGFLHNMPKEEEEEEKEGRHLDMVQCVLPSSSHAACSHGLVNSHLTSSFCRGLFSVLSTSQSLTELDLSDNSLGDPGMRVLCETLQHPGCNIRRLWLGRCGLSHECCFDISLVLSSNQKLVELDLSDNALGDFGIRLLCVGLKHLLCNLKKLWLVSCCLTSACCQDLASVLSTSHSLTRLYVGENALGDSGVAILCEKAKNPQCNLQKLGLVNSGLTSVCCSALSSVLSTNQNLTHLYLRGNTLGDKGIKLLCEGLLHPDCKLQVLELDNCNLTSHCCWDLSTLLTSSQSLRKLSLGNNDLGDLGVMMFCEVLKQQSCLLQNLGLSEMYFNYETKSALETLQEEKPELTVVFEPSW

| EC50 [nM] | Structure (SMILES) |
| --- | --- |
| 3700 | CCC(=O)N(CC)Cc1nc2c(N)nc3cc(-n4cccn4)ccc3c2n1CCO [Compound 478, N-{[4-amino-1-(2-hydroxyethyl)-7-(1H-pyrazol-1-yl)-1H-imidazo[4,5-c]quinolin-2-yl]methyl}-N-ethylpropanamide] |
| 670 | CCN(Cc1nc2c(N)nc3cc(-n4cccn4)ccc3c2n1CC)C(C)=O [Compound 479, N-{[4-amino-1-ethyl-7-(1H-pyrazol-1-yl)-1H-imidazo[4,5-c]quinolin-2-yl]methyl}-N-ethylacetamide] |
| 1900 | CCC(=O)N(CC)Cc1nc2c(N)nc3cc(-c4cccs4)ccc3c2n1CC [Compound 480, N-{[4-amino-1-ethyl-7-(thiophen-2-yl)-1H-imidazo[4,5-c]quinolin-2-yl]methyl}-N-ethylpropanamide] |
| 630 | CCC(=O)N(CC)Cc1nc2c(N)nc3cc(-n4cccn4)ccc3c2n1CC [Compound 481, N-{[4-amino-1-ethyl-7-(1H-pyrazol-1-yl)-1H-imidazo[4,5-c]quinolin-2-yl]methyl}-N-ethylpropanamide] |
| 430 | CCN(Cc1nc2c(N)nc3cc(-c4cccs4)ccc3c2n1CCO)C(C)=O [Compound 482, N-{[4-amino-1-(2-hydroxyethyl)-7-(thiophen-2-yl)-1H-imidazo[4,5-c]quinolin-2-yl]methyl}-N-ethylacetamide] |
